“And” between values parts separate entries of the source, which are not always exact repeats. Equal entries are not always repeated. Where two headings read alike, the source gives them in different places.
Tested on: CR-N330K parasites
Experiment: Growth inhibition assay (72 h, LDH activity)
Format: cell-based, Plasmodium falciparum
Conditions: for inhibition at up to 5 µM: dilution point 5 of 10, read-out: Growth inhibition assay, NORMALISED
Experimental: Parasite growth assays with inhibitory compounds were performed as per[11] and are fully described in the Supplementary Information.
Molecular biology and transfection of P. falciparum: CRISPR method.
The full 5’ homology region of pfstart1 (either WT, N309K or N330K) was amplified from pPfSTART1-HA-2A-Neo-glmS with the same 5’ BglII primer and a new 3’ primer that replaced with PstI with SpeI and introduced a stop codon. The PCR product was then digested with BglII and SpeI and inserted into similarly digested p1.2 parasite vector2. The p1.2 vector had previously been inserted with a homology region amplified from the 3’ end of the pfstart1 gene (3’HB) to form a second homology block for double recombination. The primers used to amplify 3’HB are listed primers listed in […]
60 μg of p1.2-PfSTART1(WT/N309K/N330K) plasmid was linearised with KasI, precipitated in 3 M sodium acetate and ethanol (70% final concentration) overnight at -20°C. The DNA pellet was washed in cold 70% ethanol and resuspended in cytomix 3.
50 μ M of crRNA ( Table S 2) and 50 μM of tracRNA (Integrated DNA Technologies) were allowed to form a duplex (5 min at 95°C), and Cas9 enzyme (Integrated DNA Technologies) was added, and incubated for 20 min at room temperature 4. This crRNA -tracRNA -Cas9 mix was added to each DNA preparation and transfected to 3D7 ring parasites using the Bio -Rad Gene Pulser at 310 V and 950 μF.
Parasites containing the transfected DNA were selected using 2.5 nM WR99210 (Jacobus). Parasites lines were cloned using limiting dilution. Correct integration was tested by PCR (using primer START_5’UTR.F and START_Int.R1 , Table S 2), and sequencing was done using the primers START_3F and START_Int.R2 (Table S 2).
Growth inhibition assays. Synchronised ring-stage parasites (0.3-0.6% parasitemia, 2% haematocrit) were grown for 72 h in a serial-dilution of the compound under […]
and compound 4. Note that M-833 was first purchased from MolPort (MolPort -002-267-916) then made in-house at WEHI: the differences observed in EC50s across experiments are attributed to the different batches of M -833. For some experiments, 0, 0.25 or 2.5 mM of glucosamine (GlcN) was also added. Experiments were set up in technical duplicates or triplicates. Following a freeze -thaw cycle, lactate dehydrogenase (LDH) activity was assessed as an indicator of parasite growt h 5. 30 μL of parasite culture was incubated for 30 min in the dark with 75 μL Malstat mixture (0.1 M Tris pH 9.0, 20 g/L lactic acid, pH 7.5, 0.2% Triton-X100, 0.5 g/L acetylpyridine adenine dinucleotide (APAD, Sigma), 200 μg/mL nitroblue tetrazolium (NBT; Sigma), 1 μg/mL phenozine ethosulfate (PES; Sigma)). Absorbance was then measured at 650 nm, transformed using the formula below, plotted against the logarithm of the concentrations, and a non-linear regression (log(inhibitor) vs. response, variable slope) was calculated using GraphPad Prism to assess the half-inhibitory […]
Growth inhibition % = (1 − average(sample)− average(uRBC)) ∗ 100 […]
The DMSO samples were also used to assess growth of parasite in the presence of 0.25 and 2.5 mM GlcN (normalised by DMSO in 0 mM GlcN).
Egress, invasion & recovery assay. To measure egress, invasion and follow up recovery in the presence of different compounds, we adapted the method developed in6, using Hyp1-Nluc parasites7. These parasites episomally express the exported PEXEL protein Hyp1 (PF3D7_0113300) tagged with a NanoLuc luciferase (NLuc) and were selected with 2.5 nM WR99210 (Jacobus). Highly synchronised schizonts were obtained using ML10 (LifeArc) and sorbitol synchronisation, and Percoll-purified (the culture was gently layered over 67% Percoll (Cytiva) in RPMI, and centrifuged for 15 min at 1500 g and the schizont layer was collected and washed). In a 96-well plate, […]

With `CC(C)(Nc1ccc(Cl)c(S(=O)(=O)N2CCOCC2)c1)C(=O)Nc1ccc(F)c(Cl)c1` [W-991] the “NORMALISED (growth inhibition, LDH absorbance)” value (2.5 mM GlcN, dilution point 9 of 10 from starting concentration 5 uM) was 10.3592 and 12.8289, the “fold less susceptible than the 3D7 and CR-WT controls” value (Fig 4C) was “around 600 fold” and the “fold sensitised on PfSTART1 knock-down with GlcN” value (Fig 4C) was 7.3 fold. For the same molecule, the EC50 (Fig 4C, 0 mM GlcN, n = 3, read-out: EC50 W-991 (95% confidence interval)) was under 0.7 µM, the inhibition at 5 µM (Plasmodium falciparum, 0 mM GlcN, dilution point 1 of 10, starting concentration 5 uM, read-out: NORMALISED (growth inhibition, LDH absorbance)) was 84.5% and the inhibition (Plasmodium falciparum, 0 mM GlcN, starting concentration 5 uM, dilution point 1 of 10, read-out: Growth inhibition assay, NORMALISED) was 90.1%. It also gave an inhibition (Plasmodium falciparum, 0 mM GlcN, starting concentration 5 uM, dilution point 3 of 10, read-out: Growth inhibition assay, NORMALISED) of 50.4%, an inhibition (Plasmodium falciparum, 0 mM GlcN, starting concentration 5 uM, dilution point 4 of 10, read-out: Growth inhibition assay, NORMALISED) of 20.2% and an inhibition at up to 5 µM (Plasmodium falciparum, 0 mM GlcN, starting concentration 5 uM) of 14.5%. It also gave an inhibition (Plasmodium falciparum, 0 mM GlcN, starting concentration 5 uM, dilution point 6 of 10, read-out: Growth inhibition assay, NORMALISED) of 9.02%, an inhibition (Plasmodium falciparum, 0 mM GlcN, starting concentration 5 uM, dilution point 7 of 10, read-out: Growth inhibition assay, NORMALISED) of 9.74% and an inhibition (Plasmodium falciparum, 0 mM GlcN, starting concentration 5 uM, dilution point 8 of 10, read-out: Growth inhibition assay, NORMALISED) of 9.24%. It also gave an inhibition (Plasmodium falciparum, 0 mM GlcN, starting concentration 5 uM, dilution point 9 of 10, read-out: Growth inhibition assay, NORMALISED) of 12.9%, an inhibition (Plasmodium falciparum, 0 mM GlcN, starting concentration 5 uM, dilution point 10 of 10, read-out: Growth inhibition assay, NORMALISED) of 5.95% and an inhibition at 5 µM (Plasmodium falciparum, 0.25 mM GlcN, dilution point 1 of 10, starting concentration 5 uM, read-out: NORMALISED (growth inhibition, LDH absorbance)) of 86.4%. For the same molecule, the inhibition at 5 µM (Plasmodium falciparum, 0.25 mM GlcN, starting concentration 5 uM, dilution point 1 of 10, read-out: Growth inhibition assay, NORMALISED) was 87.6%, the inhibition at 5 µM (Plasmodium falciparum, 0.25 mM GlcN, starting concentration 5 uM, dilution point 2 of 10, read-out: Growth inhibition assay, NORMALISED) was 84.3% and the inhibition at 5 µM (Plasmodium falciparum, 0.25 mM GlcN, starting concentration 5 uM, dilution point 3 of 10, read-out: Growth inhibition assay, NORMALISED) was 66.9%. For the same molecule, the inhibition at 5 µM (Plasmodium falciparum, 0.25 mM GlcN, starting concentration 5 uM, dilution point 4 of 10, read-out: Growth inhibition assay, NORMALISED) was 35.9%, the inhibition at 5 µM (Plasmodium falciparum, 0.25 mM GlcN, starting concentration 5 uM, dilution point 6 of 10, read-out: Growth inhibition assay, NORMALISED) was 2.77% and the inhibition at 5 µM (Plasmodium falciparum, 0.25 mM GlcN, starting concentration 5 uM, dilution point 7 of 10, read-out: Growth inhibition assay, NORMALISED) was 9.45%. For the same molecule, the inhibition at 5 µM (Plasmodium falciparum, 0.25 mM GlcN, starting concentration 5 uM, dilution point 8 of 10, read-out: Growth inhibition assay, NORMALISED) was 11.2%, the inhibition at 5 µM (Plasmodium falciparum, 0.25 mM GlcN, starting concentration 5 uM, dilution point 9 of 10, read-out: Growth inhibition assay, NORMALISED) was 16.2% and the inhibition at 5 µM (Plasmodium falciparum, 0.25 mM GlcN, starting concentration 5 uM, dilution point 10 of 10, read-out: Growth inhibition assay, NORMALISED) was 6.13%. For the same molecule, the inhibition (Plasmodium falciparum, 2.5 mM GlcN, starting concentration 5 uM, dilution point 1 of 10, read-out: Growth inhibition assay, NORMALISED) was 33.9%, the inhibition (Plasmodium falciparum, 2.5 mM GlcN, starting concentration 5 uM, dilution point 2 of 10, read-out: Growth inhibition assay, NORMALISED) was 33.5% and the inhibition (Plasmodium falciparum, 2.5 mM GlcN, starting concentration 5 uM, dilution point 3 of 10, read-out: Growth inhibition assay, NORMALISED) was 23.8%. For the same molecule, the inhibition (Plasmodium falciparum, 2.5 mM GlcN, starting concentration 5 uM, dilution point 4 of 10, read-out: Growth inhibition assay, NORMALISED) was 10.8%, the inhibition at up to 5 µM (Plasmodium falciparum, 2.5 mM GlcN, starting concentration 5 uM) was -13.2% and the inhibition (Plasmodium falciparum, 2.5 mM GlcN, starting concentration 5 uM, dilution point 6 of 10, read-out: Growth inhibition assay, NORMALISED) was -23.5%. It also gave an inhibition (Plasmodium falciparum, 2.5 mM GlcN, starting concentration 5 uM, dilution point 7 of 10, read-out: Growth inhibition assay, NORMALISED) of -34.6%, an inhibition (Plasmodium falciparum, 2.5 mM GlcN, starting concentration 5 uM, dilution point 8 of 10, read-out: Growth inhibition assay, NORMALISED) of -22.6% and an inhibition (Plasmodium falciparum, 2.5 mM GlcN, starting concentration 5 uM, dilution point 9 of 10, read-out: Growth inhibition assay, NORMALISED) of -27.3%. For the same molecule, the inhibition (Plasmodium falciparum, 2.5 mM GlcN, starting concentration 5 uM, dilution point 10 of 10, read-out: Growth inhibition assay, NORMALISED) was -18.7%, the EC50 (Plasmodium falciparum, read-out: EC50 W-991 (95% confidence interval), Fig 4C, 0 mM GlcN, n = 3) was 0.623 µM and the EC50 (Plasmodium falciparum, read-out: EC50 W-991 (95% confidence interval), Fig 4C, 0.25 mM GlcN, n = 3) was 0.336 µM. It also gave an EC50 (Plasmodium falciparum, read-out: EC50 W-991 (95% confidence interval), Fig 4C, 2.5 mM GlcN, n = 3) of 0.0853 µM and an EC50 (read-out: EC50 W-991 (95% confidence interval), Fig 4C, 0 mM GlcN, n = 3) of 0.623 µM.
